The compounds below were run on miR-124 (assay: Induction of miR-124 expression in PBMC cells (qPCR)). Settings: Homo sapiens, 72 h, 0.1 μM compound, human PBMCs stimulated with PMA/ionomycin, miR-191 reference gene, read-out: miR-124 expression, Fold change vs DMSO.
Type: cell-based
Procedure: This study evaluated the ability of the compound of the present invention to influence miR-124 transcriptional activity in vitro. The experiment analyzed miR-124 expression in human PBMCs (Sailybio) using quantitative PCR (qPCR).
Thawed human PBMCs (1 mL) were added to 19 mL of culture medium (RPMI1640+10% hFBS+1‰ 2-mercaptoethanol) and the PBMCs were incubated in a cell culture incubator for 30 minutes. The PBMCs were collected and the cells (3.0*10^6 cells/well/3 mL) were resuspended in medium containing PMA (10 ng/mL; Invivogen) and ionomycin (200 ng/mL; Invivogen). The cells were incubated in a 6-well plate for 48 hours. Diluted compound was added to the cells to achieve a final concentration of 0.1 μM. After 72 hours, the samples were centrifuged and the cells were collected.
Total miRNA was extracted from the cells using the MiPure Cell/Tissue miRNA Kit (Vazyme) according to the manufacturer's instructions, followed by purification. The purified samples were treated with genomic DNA elimination buffer, and reverse transcription was performed using a GeneAmp PCR System. The resulting cDNA was subjected to quantitative real-time PCR (qPCR) analysis on a QuantStudio™ 7 Flex Real-Time PCR System. Data analysis was performed using the QuantStudio 7 software with default settings to automatically determine Ct values, and the results were exported. In this assay, miR-191 was used as the reference gene, and the DMSO-treated group served as the control. The relative expression of miR-124 was calculated using the following formula: […]

In order of rising fold induction at 0.1 µM:
1. Fc1cccc2c1nc(Nc1ccc(C(F)(F)F)c(Cl)c1)c1nccn12 [Compound 47]  9.86
2. FC(F)(F)c1ccc(Nc2nc3c(Cl)cccc3n3ccnc23)cc1 [Compound 16]  13.4
3. Fc1cccc2c1nc(Nc1ccc3c(c1)OC(F)(F)O3)c1nccn12 [Compound 42]  14.1
4. FC1(F)Oc2ccc(Nc3nc4cc(Cl)ccc4n4ccnc34)cc2O1 [Compound B106, 7-chloro-N-(2,2-difluorobenzo[d] [1,3]dihydroxy-5-yl) imidazolo[1,2-a] quinoxalin-4-amine]  16.3
5. FC1(F)Cc2cc(Nc3nc4c(Cl)cccc4n4ccnc34)ccc2O1 [Compound 39, 6-Chloro-N-(2,2-difluoro-2,3-dihydrobenzofuran-5-yl) imidazolo [1,2-a] quinoxalin-4-amine]  16.8
6. Fc1cc(Nc2nc3c(F)cc(Cl)cc3n3ccnc23)ccc1OC(F)(F)F [Compound 56]  17.2
7. FC1(F)Oc2ccc(Nc3nc4c(Cl)cccc4n4ccnc34)cc2C1(F)F [Compound 40, 6-Chloro-N-(2,2,3,3-tetrafluoro-2,3-dihydrobenzofuran-5-yl) imidazolo [1,2-a] quinoxalin-4-amine]  17.5
8. Fc1cc(NC2=Nc3c(F)cc(Cl)cc3N3CCN=C23)ccc1C(F)(F)F [Compound 96]  17.7
9. Fc1cccc2c1nc(Nc1ccc(C(F)(F)F)cc1)c1nccn12 [Compound 45]  17.9
10. FC(F)(F)Oc1ccc(Nc2nc3c(Br)cccc3n3ccnc23)cc1Cl [Compound 50]  18.5
11. FC1(F)Oc2ccc(Nc3nc4ccc(Cl)cc4n4ccnc34)cc2O1 [Compound B100, 8-chloro-N-(2,2-difluorobenzo [d][1,3]dihydroxy-5-yl) imidazolo[1,2-a] quinoxalin-4-amine]  19.6
12. FC(F)(F)c1ccc(NC2=Nc3c(Br)cccc3N3CCN=C23)cc1 [Compound 80]  19.8
13. CSc1ccc(Nc2nc3cccc(Cl)c3n3ccnc23)cc1 [Compound B61, 9-chloro-N-(4-(methylthio)phenyl) imidazolo [1,2-a]quinoxalin-4-amine]  19.9
14. FC(F)(F)Oc1ccc(Nc2nc3c(Br)cccc3n3ccnc23)cc1 [Compound 48]  20.4
15. Cn1c(=O)c(Nc2ccc3c(c2)OC(F)(F)O3)nc2c(Cl)cccc21 [Compound 12]  22
16. Fc1cc(Nc2nc3c(Br)cccc3n3ccnc23)ccc1C(F)(F)F [Compound 52]  22.3
17. FC(F)(F)Oc1ccc(NC2=Nc3cccc(Cl)c3N3CCN=C23)cc1Cl [Compound B120, 9-chloro-N-(3-chloro-4-(trifluoromethoxy)phenyl)-1,2-dihydroimidazo[1,2-a] quinoxalin-4-amine]  22.6
18. Fc1cccc2nc(Nc3ccc(OC(F)(F)F)c(Cl)c3)c3nccn3c12 [Compound B77, 9-fluoro-N-(3-chloro-4-(trifluoromethoxy)phenyl) imidazolo[1,2-a]quinoxalin-4-amine]  23.1
19. FC(F)(F)c1ccc(Nc2nc3c(Br)cccc3n3ccnc23)cc1 [Compound 51]  23.1
20. FC(F)(F)c1ccc(NC2=Nc3cccc(Cl)c3N3CCN=C23)cc1Cl [Compound B123, 9-chloro-N-(3-chloro-4-(trifluoromethyl)phenyl)-1,2-dihydroimidazo[1,2-a] quinoxalin-4-amine]  24.3
21. Fc1cc(Cl)cc2nc(Nc3ccc(OC(F)(F)F)cc3)c3nccn3c12 [Compound B31, 7-chloro-9-fluoro-N-(4-(trifluoromethoxy)phenyl)imidazolo [1,2-a]quinoxalin-4-amine]  24.4
22. Fc1cc(Nc2nc3ccc(Cl)cc3n3ccnc23)ccc1OC(F)(F)F [Compound B101, 8-chloro-N-(3-fluoro-4-(trifluoromethoxy)phenyl) imidazolo[1,2-a] quinoxalin-4-amine]  24.7
23. FC(F)(F)Oc1ccc(Nc2nc3cc(Cl)cc(Cl)c3n3ccnc23)cc1Cl [Compound B95, 7,9-dichloro-N-(3-chloro-4-(trifluoromethoxy)phenyl) imidazolo[1,2-a] quinoxalin-4-amine]  24.8
24. Fc1cc(Nc2nc3cc(Cl)cc(F)c3n3ccnc23)ccc1C(F)(F)F [Compound B91, 7-chloro-9-fluoro-N-(3-fluoro-4-(trifluoromethyl)phenyl) imidazolo[1,2-a] quinoxalin-4-amine]  25.7
25. Fc1cc(Cl)cc2c1N1CCN=C1C(Nc1ccc(C(F)(F)F)cc1)=N2 [Compound B133, 7-chloro-9-fluoro-N-(4-(trifluoromethyl)phenyl)-1,2-dihydroimidazo[1,2-a] quinoxalin-4-amine]  26.3
26. FC(F)(F)Oc1ccc(NC2=Nc3cc(Cl)ccc3N3CCN=C23)cc1Cl [Compound B150, 7-chloro-N-(3-chloro-4-(trifluoromethoxy)phenyl)-1,2-dihydroimidazo[1,2-a] quinoxalin-4-amine]  26.4
27. FC(F)(F)Oc1ccc(NC2=Nc3c(Cl)cccc3N3CCN=C23)cc1 [Compound 9]  26.9
28. Fc1cc(Cl)cc2nc(Nc3ccc(C(F)(F)F)c(Cl)c3)c3nccn3c12 [Compound B92, 7-chloro-9-fluoro-N-(3-chloro-4-(trifluoromethyl)phenyl) imidazolo[1,2-a] quinoxalin-4-amine]  27.1
29. FC(F)(F)Oc1ccc(Nc2nc3ccc(Cl)cc3n3ccnc23)cc1Cl [Compound B102, 8-chloro-N-(3-chloro-4-(trifluoromethoxy)phenyl) imidazolo[1,2-a] quinoxalin-4-amine]  27.3
30. FC(F)(F)c1ccc(NC2=Nc3ccc(Cl)cc3N3CCN=C23)cc1Cl [Compound B147, 8-chloro-N-(3-chloro-4-(trifluoromethyl)phenyl)-1,2-dihydroimidazo[1,2-a] quinoxalin-4-amine]  27.9
31. Fc1ccc2nc(Nc3ccc(OC(F)(F)F)cc3)c3nccn3c2c1 [Compound B5, 8-fluoro-N-(4-(trifluoromethoxy)phenyl)imidazolo [1,2-a]quinoxalin-4-amine]  31.3
32. Fc1cc(Cl)c2c(c1)nc(Nc1ccc(OC(F)(F)F)cc1)c1nccn12 [Compound B22, 9-chloro-7-fluoro-N-(4-(trifluoromethoxy)phenyl)imidazolo [1,2-a]quinoxalin-4-amine]  32.5
33. FC(F)(F)Oc1ccc(NC2=Nc3cc(Cl)cc(Cl)c3N3CCN=C23)cc1 [Compound B136, 7,9-dichloro-N-(4-(trifluoromethoxy)phenyl)-1,2-dihydroimidazo[1,2-a] quinoxalin-4-amine]  34.1
34. FC(F)(F)c1ccc(NC2=Nc3cc(Cl)cc(Cl)c3N3CCN=C23)cc1Cl [Compound B141, 7,9-dichloro-N-(3-chloro-4-(trifluoromethyl)phenyl)-1,2-dihydroimidazo[1,2-a] quinoxalin-4-amine]  36.2
35. Fc1cc(Nc2nc3cccc(Cl)c3n3ccnc23)ccc1C(F)(F)F [Compound B53, 9-chloro-N-(3-Fluoro-4-(trifluoromethyl)phenyl)imidazolo [1,2-a]quinoxalin-4-amine]  36.8
